This is an account of results in patent US20040242508A1, “Novel hydroxyalkyl indolocarbazole derivatives, preparation method and pharmaceutical compositions containing the same” (priority 2001, published 2004).

The structures appear in SMILES notation.

The target in test [1] is T1, Glycogen synthase kinase 3 (Rattus norvegicus, UniProt P18266).
T1 construct: made in house; host or cells: Sf9 insect cells
The test can be described thus: Inhibitory activity in respect of GSK-3. Format: biochemical. Particulars: GS-1 peptide substrate, 15 μM ATP, 30 minutes at 30° C. On the procedure: Glycogen synthase kinase 3 was purified starting from Sf9 cells transfected as described in Eur. J. Biochem., 1992, 305-311. The reaction mixture comprises, in a final volume of 30 μl: 1 mg/ml of BSA, 10 mM DTT, 6.7 μM GS-1 peptide as substrate, 15 μM [γ-^32P]ATP (3000 Ci/mmol, 1 mCi/ml), 10 mM MgCl2, 1 mM EGTA, 25mM Tris-HCl pH=7.5, 50 μg/ml of heparin, and the inhibitor at a given concentration. After 30 minutes at 30° C., 25 μl of the mixture are deposited on Whatman® P81 phosphocellulose paper filters, which are then washed 5 times with 10 ml of phosphoric acid (10 ml/l). The radioactivity of the filters is then counted in the presence of 1 ml of scintillation liquid. The IC50 values are estimated from dose-response curves.

Another test deals with CDK1/cyclin B. The test can be described thus: Inhibitory activity in respect of CDK-1. The test is classed as biochemical, starfish (Marthasterias glacialis). The following applies: histone H1 substrate, 15 μM ATP, 10 minutes at 30° C. On the procedure:
The enzyme was purified from a starfish (Marthasterias glacialis) oocyte homogenate at M phase as described in Eur. J. Biochem, 1997, 243, 527-536 and J. Biol. Chem.,1999, 274, 11977-11986. The reaction mixture comprises, in a volume of 30 μl: 1 mg/ml of histone H1 as substrate, 15 μM [γ-^32P]ATP (3000 Ci/mmol, 1 mCi/ml), 15 mM MgCl2, 60 mM β-glycerophosphate, 15 mM p-nitrophenylphosphate, 25 mM MOPS pH=7.2, 5 mM EGTA, 1 mM DTT, 1 mM sodium vanadate, and the inhibitor at a given concentration. After 10 minutes' incubation at 30° C., 25 μl of the reaction mixture are removed and treated as described above in the GSK-3 protocol. The IC50 values are estimated from dose-response curves.

A further test addresses CDK5/p25 complex (Homo sapiens, UniProt Q00535). As to the kind of experiment: Inhibitory activity in respect of CDK5. The test is classed as biochemical. The following applies: CDK5 activated by p25 (1/1 mixture), measured as for CDK1/cyclin B. On the procedure: CDK5 was expressed in E. coli in the form of a GST (Glutathione-S-transferase) fusion protein and purified on a glutathione-agarose affinity column. CDK5 is then activated by p25 (1/1 mixture), prepared in the same manner. The enzymatic activity of the CDK5/p25 complex is measured as described above for CDK1/cyclin B. The IC50 values are estimated from dose-response curves.

Chain of CDK5/p25 complex (Q00535 whole entry, species assumed, the tested form may be a part): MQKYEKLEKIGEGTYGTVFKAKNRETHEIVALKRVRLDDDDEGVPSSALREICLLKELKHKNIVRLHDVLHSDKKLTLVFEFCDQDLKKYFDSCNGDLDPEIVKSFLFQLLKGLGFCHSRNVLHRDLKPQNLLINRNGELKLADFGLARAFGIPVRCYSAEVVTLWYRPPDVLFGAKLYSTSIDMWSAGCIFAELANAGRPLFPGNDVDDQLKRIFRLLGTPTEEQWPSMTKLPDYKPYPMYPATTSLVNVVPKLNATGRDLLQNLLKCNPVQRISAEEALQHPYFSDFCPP
Chain of CDK5/p25 complex (Q15078 99-307 partner limits assumed, species assumed): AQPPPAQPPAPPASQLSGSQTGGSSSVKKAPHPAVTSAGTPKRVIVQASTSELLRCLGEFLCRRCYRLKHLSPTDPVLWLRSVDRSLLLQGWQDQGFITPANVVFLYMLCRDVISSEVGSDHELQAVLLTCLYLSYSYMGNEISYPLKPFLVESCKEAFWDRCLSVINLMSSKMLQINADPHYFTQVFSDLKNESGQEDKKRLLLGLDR
T1 sequence (P18266 whole entry): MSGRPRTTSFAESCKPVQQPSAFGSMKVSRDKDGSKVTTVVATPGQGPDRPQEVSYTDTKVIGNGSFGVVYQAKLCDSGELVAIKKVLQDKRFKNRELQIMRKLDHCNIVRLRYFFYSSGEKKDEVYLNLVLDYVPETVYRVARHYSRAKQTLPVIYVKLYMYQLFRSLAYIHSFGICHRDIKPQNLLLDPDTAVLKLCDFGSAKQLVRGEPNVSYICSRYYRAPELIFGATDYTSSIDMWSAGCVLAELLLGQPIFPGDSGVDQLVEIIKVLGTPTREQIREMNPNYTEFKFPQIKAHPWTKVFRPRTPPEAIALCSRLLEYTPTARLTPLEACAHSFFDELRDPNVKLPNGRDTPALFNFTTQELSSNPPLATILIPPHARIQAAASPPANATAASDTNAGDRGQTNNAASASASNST

What is called IC50 is the concentration at which inhibition is half-maximal. As to `CO[C@H]1[C@H](O)[C@@H](O)[C@H](n2c3ccc(CO)cc3c3c4c(c5c6cc(CO)ccc6[nH]c5c32)C(=O)NC4=O)O[C@@H]1CO` [Example 1, 3,9-bis(hydroxymethyl)-1 2-(4-O-methyl-β-D-glucopyranosyl)-12,13-dihydro-5H-indolo[2,3-a]pyrrolo[3,4-c]carbazole-5,7(6H)-dione], the half-maximal inhibitory concentration (IC50) in test [1] is 30 nM; with CDK1/cyclin B it was > 5000 nM; on CDK5/p25 complex, > 5000 nM.
